Like-named read-outs stand apart in the source and are kept apart here.
What was measured:
[1] = Effect of food (high-fat and high-calorie meal) on pharmacokinetics in healthy subjects; assay type: in vivo, human
[2] = Pharmacokinetics in specific populations; assay type: in vivo, human; conditions: age 21-88 years, sex, race, body weight 36-132 kg, mild or moderate renal impairment, mild hepatic impairment
[3] = 187 patients with cancer; large effect i.e. >20 ms
[4] = test system: metastatic or surgically unresectable urothelial cancer harboring select FGFR genetic alterations; conditions: for ORR, BIRC assessment / ORR, investigator assessment: chemotherapy-refractory patients in Regimen 3
Source text: The study comprises a Screening Phase (molecular screening at any time prior to first dose and study screening within 30 days of first dose), a treatment phase, and a post-treatment follow-up phase. The treatment phase comprises the period from first dose until the end-of-treatment visit. The follow-up phase extends until the subject has died, withdraws consent, is lost to follow-up, or the end of study, whichever comes first.
Included patients were adults with measurable urothelial cancer per Response Evaluation Criteria in Solid Tumors version 1.1.
Patients were required to have at least 1 FGFR2/FGFR3 mutation or fusion per central lab testing of RNA from formalin-fixed, paraffin-embedded tumor samples, using a custom reverse transcriptase polymerase chain reaction assay.
The primary end point of this study is Objective Response Rate to the selected regimen (Regimen 3).
Secondary end points include progression-free survival (PFS), response duration, Overall Survival, safety, response rate in biomarker-specific subgroups, and pharmacokinetics.
The study was designed to enroll 180 patients with specified FGFR alterations. Of these, ≥88 were required in the selected regimen. […] Responses were assessed by investigators and an independent radiological review committee. Progression-free survival and overall survival were estimated using Kaplan-Meier product limit method. Data from patients who were progression free and alive or with unknown status were censored at last tumor assessment. Efficacy end points were analysed at primary analysis cut-off.

in vitro = in vitro ADME; conditions: human
[5] = Chemotherapy-refractory patients in Regimen 3 (N = 87)
[6] = Regimen 1, 10 mg intermittent (n = 33)
[7] = Regimen 2, 6 mg continuous (n = 78)
[8] = Regimen 3, of 97 patients with ≥1 postbaseline disease evaluation

## COc1cc(OC)cc(N(CCNC(C)C)c2ccc3ncc(-c4cnn(C)c4)nc3c2)c1 [erdafitinib, N-(3,5-dimethoxy-phenyl)-N′-(1-methylethyl)-N-[3-(1-methyl-1H-pyrazol-4-yl)quinoxalin-6-yl]ethane-1,2-diamine]
[1]
  Effect of food on erdafitinib pharmacokinetics: No clinically meaningful differences
[2]
  Trends in pharmacokinetics in specific populations: No clinically meaningful trends
[3]
  Effect on the QTc interval: no large effect
[4]; 8 mg non-uptitrated continuous dose regimen, Regimen 3
  Objective response rate per investigator assessment: (34.5) %
[4]; 8 mg uptitrated to 9 mg continuous dose regimen, Regimen 3
  Objective response rate per investigator assessment: (48.8) %
[4]; Bone metastases, Regimen 1, 10 mg intermittent
  Objective response rate per investigator assessment: (17) %
[4]; Bone metastases, Regimen 2, 6 mg continuous
  Objective response rate per investigator assessment: (40) %
[4]; Bone metastases, Regimen 3, 8 mg continuous
  Objective response rate per investigator assessment: (31.8) %
[4]; Chemotherapy-naïve, Regimen 1, 10 mg intermittent
  Objective response rate per investigator assessment: (25) %
[4]; Chemotherapy-naïve, Regimen 2, 6 mg continuous
  Objective response rate per investigator assessment: (0) %
[4]; Chemotherapy-naïve, Regimen 3, 8 mg continuous
  Objective response rate per investigator assessment: (41.7) %
[4]; [5]
  Complete response (CR), investigator assessment: 3.4%
  Partial response (PR), investigator assessment: 36.8%
[4]; FGFR2 Fusion (N = 6)
  ORR, BIRC assessment: 0%
[4]; FGFR3 Fusion (N = 18)
  ORR, BIRC assessment: 11.1%
[4]; FGFR3 Point Mutation (N = 64)
  ORR, BIRC assessment: 40.6%
  ORR, investigator assessment: 48.4%
[4]; FGFR Fusion (N = 23)
  ORR, investigator assessment: 17.4%
[4]; Liver metastases, Regimen 1, 10 mg intermittent
  Objective response rate per investigator assessment: (27) %
[4]; Liver metastases, Regimen 2, 6 mg continuous
  Objective response rate per investigator assessment: (24) %
[4]; Liver metastases, Regimen 3, 8 mg continuous
  Objective response rate per investigator assessment: (35.0) %
[4]; Lower tract disease, Regimen 1, 10 mg intermittent
  Objective response rate per investigator assessment: (9) %
[4]; Lower tract disease, Regimen 2, 6 mg continuous
  Objective response rate per investigator assessment: (39) %
[4]; Lower tract disease, Regimen 3, 8 mg continuous
  Objective response rate per investigator assessment: (39.5) %
[4]; Lung metastases, Regimen 1, 10 mg intermittent
  Objective response rate per investigator assessment: (27) %
[4]; Lung metastases, Regimen 2, 6 mg continuous
  Objective response rate per investigator assessment: (41) %
[4]; Lung metastases, Regimen 3, 8 mg continuous
  Objective response rate per investigator assessment: (40.4) %
[4]; Lymph node metastases only, Regimen 1, 10 mg intermittent
  Objective response rate per investigator assessment: (0) %
[4]; Lymph node metastases only, Regimen 2, 6 mg continuous
  Objective response rate per investigator assessment: (67) %
[4]; Lymph node metastases only, Regimen 3, 8 mg continuous
  Objective response rate per investigator assessment: (33.3) %
[4]; No. of lines of prior systemic therapy 0, Regimen 3, 8 mg continuous
  Objective response rate per investigator assessment: (36.4) %
[4]; No. of lines of prior systemic therapy 1, Regimen 3, 8 mg continuous
  Objective response rate per investigator assessment: (37.8) %
[4]; No. of lines of prior systemic therapy 2, Regimen 3, 8 mg continuous
  Objective response rate per investigator assessment: (37.9) %
[4]; No. of lines of prior systemic therapy 3, Regimen 3, 8 mg continuous
  Objective response rate per investigator assessment: (60.0) %
[4]; No. of lines of prior systemic therapy ≥4, Regimen 3, 8 mg continuous
  Objective response rate per investigator assessment: (50.0) %
[4]; Progressed or relapsed after chemotherapy, Regimen 1, 10 mg intermittent
  Objective response rate per investigator assessment: (21) %
[4]; Progressed or relapsed after chemotherapy, Regimen 2, 6 mg continuous
  Objective response rate per investigator assessment: (37) %
[4]; Progressed or relapsed after chemotherapy, Regimen 3, 8 mg continuous
  Objective response rate per investigator assessment: (40.2) %
[4]; Regimen 1
  Median progression-free survival per investigator assessment: 4.8 months
  Overall survival rate at 12 months: 31%
  Progression-free survival rate at 12 months: 18%
[4]; [6]
  Complete response per investigator assessment: 1 no.
  Median time to response: 1.4 mo
[4]; Regimen 1, median follow-up 22.9 months
  Median overall survival: 7.5 months
[4]; Regimen 2
  Median progression-free survival per investigator assessment: 5.3 months
  Overall survival rate at 12 months: 33%
  Progression-free survival rate at 12 months: 11%
[4]; [7]
  Complete response per investigator assessment: 3 no.
  Median time to response: 1.4 mo
[4]; Regimen 2, median follow-up 18.5 months
  Median overall survival: 8.6 months
[4]; Regimen 3
  Responses maintained for >12 months: roughly 30%
  Survival rate at 12 months: 55%
[4]; Regimen 3, 8 mg continuous (n = 99)
  Median time to response: 1.4 mo
[4]; Regimen 3, 8 mg per day continuous (FIG. 5A)
  Median progression-free survival: 5.5 months
[4]; Regimen 3, 8 mg per day continuous (FIG. 5B)
  Median overall survival: 13.8 months
[4]; Regimen 3, FGFR3-TACC3 V1 fusion (n=11)
  Patients who responded: 36.4%
[4]; Regimen 3, among 39 patients with stable disease
  Disease stabilization lasting >6 months: 33%
[4]; Regimen 3, patients with FGFR mutations (n=74)
  Additional patients with stable disease: 26 patients
[4]; Regimen 3, per investigator assessment
  Progression-free survival rate at 12 months: 19%
[4]; [8]
  Patients with maximum tumor reduction between 30% and 100%: 49%
  Patients with reduction in sum of target lesion diameters: 77%
[4]; Upper tract disease, Regimen 1, 10 mg intermittent
  Objective response rate per investigator assessment: (46) %
[4]; Upper tract disease, Regimen 2, 6 mg continuous
  Objective response rate per investigator assessment: (23) %
[4]; Upper tract disease, Regimen 3, 8 mg continuous
  Objective response rate per investigator assessment: (43.5) %
[4]; With FGFR2/3 fusions, Regimen 1, 10 mg intermittent
  Objective response rate per investigator assessment: (0) %
[4]; With FGFR2/3 fusions, Regimen 2, 6 mg continuous
  Objective response rate per investigator assessment: (17) %
[4]; With FGFR3 mutations, Regimen 1, 10 mg intermittent
  Objective response rate per investigator assessment: (22) %
[4]; With FGFR3 mutations, Regimen 2, 6 mg continuous
  Objective response rate per investigator assessment: (36) %
[4]; With visceral metastases, Regimen 1, 10 mg intermittent
  Objective response rate per investigator assessment: (29) %
[4]; With visceral metastases, Regimen 2, 6 mg continuous
  Objective response rate per investigator assessment: (32) %
[4]; With visceral metastases, Regimen 3, 8 mg continuous
  Objective response rate per investigator assessment: (38.5) %
[4]; Without visceral metastases, Regimen 1, 10 mg intermittent
  Objective response rate per investigator assessment: (0) %
[4]; Without visceral metastases, Regimen 2, 6 mg continuous
  Objective response rate per investigator assessment: (42) %
[4]; Without visceral metastases, Regimen 3, 8 mg continuous
  Objective response rate per investigator assessment: (47.6) %
In vitro
  fraction unbound: 0.002
